Experimental data as given in patent publication EP0726263A2, “Herbicidal (1,3,4)oxadiazoles and thiadiazoles” (American Cyanamid Company, priority 1995, dated 1996).

How the values were obtained:
Assay type in all cases: in vivo
Glycine max [1] = assay: Herbicidal activity, preemergence test; settings: pre; sprayed onto soil, 800 g of active material per hectare; evaluated 3 weeks after treatment
Method: (§1) To evaluate their herbicidal activity, compounds according to the invention are tested using a representative range of plants: TRZAW Triticum aestivum HORVW Hordeum vulgare ZEAMX Zea mays GOSHI Gossypium hirsutum HELAN Helianthus annuus GLYMA Glycine max ALOMY Alopecurus myosuroides SETVI Setaria viridis ECHCG Echinochloa crus-galli GALAP Galium aparine STEME Stellaria media VERPE Veronica persica VIOAR Viola arvensis IPOHE Ipomoea hederacea LAMPU Lamium purpureum PAPRH Papaver rhoeas MATIN Matricaria inodora AMARE Amaranthus retroflexus ABUTH Abutilon theophrasti AMBEL Ambrosia artemisifolia CHEAL Chenopodium album
(§2) The tests fall into two categories, preemergence and postemergence. The preemergence tests involve spraying a liquid formulation of the compound onto the soil in which the seeds have recently been sown. The postemergence tests involve spraying a liquid formulation of the compound onto seedling plants.
(§3) The soil used in the tests is a prepared horticultural loam.
(§4) The formulations used in the tests are prepared from solutions of the test compounds in acetone containing 0.4% by weight of an alkylphenol/ethylene oxide condensate available under the trade mark TRITON X-155. These acetone solutions are diluted with water and the resulting formulations applied at dosage levels corresponding to 800 g of active material per hectare in a volume equivalent to 900 litres per hectare.
(§5) In the preemergence tests untreated sown soil and in the postemergence tests untreated soil bearing seedling plants are used as controls.
(§6) Results of herbicide evaluation are expressed on a rating scale (0-9). The scale is based upon a visual observation of plant stand, vigor, malformation, size, chlorosis, and general plant appearance as compared to a control. Preemergence and postemergence treatments are evaluated at 3 and 2 weeks after treatment, respectively.

Stellaria media [2] = assay: Herbicidal activity, preemergence test; settings: pre; sprayed onto soil, 800 g of active material per hectare; evaluated 3 weeks after treatment
Method: as §1, §2, §3, §4, §5, §6

Veronica persica [3] = assay: Herbicidal activity, preemergence test; settings: pre; sprayed onto soil, 800 g of active material per hectare; evaluated 3 weeks after treatment
Method: as §1, §2, §3, §4, §5, §6

Alopecurus myosuroides [4] = assay: Herbicidal activity, preemergence test; settings: pre; sprayed onto soil, 800 g of active material per hectare; evaluated 3 weeks after treatment
Method: as §1, §2, §3, §4, §5, §6

Gossypium hirsutum [5] = assay: Herbicidal activity, preemergence test; settings: pre; sprayed onto soil, 800 g of active material per hectare; evaluated 3 weeks after treatment
Method: as §1, §2, §3, §4, §5, §6

Ambrosia artemisifolia [6] = assay: Herbicidal activity, preemergence test; settings: pre; sprayed onto soil, 800 g of active material per hectare; evaluated 3 weeks after treatment
Method: as §1, §2, §3, §4, §5, §6

Abutilon theophrasti [7] = assay: Herbicidal activity, preemergence test; settings: pre; sprayed onto soil, 800 g of active material per hectare; evaluated 3 weeks after treatment
Method: as §1, §2, §3, §4, §5, §6

Triticum aestivum [8] = assay: Herbicidal activity, preemergence test; settings: pre; sprayed onto soil, 800 g of active material per hectare; evaluated 3 weeks after treatment
Method: as §1, §2, §3, §4, §5, §6

Amaranthus retroflexus [9] = assay: Herbicidal activity, preemergence test; settings: pre; sprayed onto soil, 800 g of active material per hectare; evaluated 3 weeks after treatment
Method: as §1, §2, §3, §4, §5, §6

Setaria viridis [10] = assay: Herbicidal activity, preemergence test; settings: pre; sprayed onto soil, 800 g of active material per hectare; evaluated 3 weeks after treatment
Method: as §1, §2, §3, §4, §5, §6

Lamium purpureum [11] = assay: Herbicidal activity, preemergence test; settings: pre; sprayed onto soil, 800 g of active material per hectare; evaluated 3 weeks after treatment
Method: as §1, §2, §3, §4, §5, §6

Matricaria inodora [12] = assay: Herbicidal activity, preemergence test; settings: pre; sprayed onto soil, 800 g of active material per hectare; evaluated 3 weeks after treatment
Method: as §1, §2, §3, §4, §5, §6

Galium aparine [13] = assay: Herbicidal activity, preemergence test; settings: pre; sprayed onto soil, 800 g of active material per hectare; evaluated 3 weeks after treatment
Method: as §1, §2, §3, §4, §5, §6

Hordeum vulgare [14] = assay: Herbicidal activity, preemergence test; settings: pre; sprayed onto soil, 800 g of active material per hectare; evaluated 3 weeks after treatment
Method: as §1, §2, §3, §4, §5, §6

Papaver rhoeas [15] = assay: Herbicidal activity, preemergence test; settings: pre; sprayed onto soil, 800 g of active material per hectare; evaluated 3 weeks after treatment
Method: as §1, §2, §3, §4, §5, §6

Zea mays [16] = assay: Herbicidal activity, preemergence test; settings: pre; sprayed onto soil, 800 g of active material per hectare; evaluated 3 weeks after treatment
Method: as §1, §2, §3, §4, §5, §6

Chenopodium album [17] = assay: Herbicidal activity, preemergence test; settings: pre; sprayed onto soil, 800 g of active material per hectare; evaluated 3 weeks after treatment
Method: as §1, §2, §3, §4, §5, §6

Ipomoea hederacea [18] = assay: Herbicidal activity, preemergence test; settings: pre; sprayed onto soil, 800 g of active material per hectare; evaluated 3 weeks after treatment
Method: as §1, §2, §3, §4, §5, §6

Glycine max [19] = assay: Herbicidal activity, postemergence test; settings: post; sprayed onto seedling plants, 800 g of active material per hectare; evaluated 2 weeks after treatment
Method: as §1, §2, §3, §4, §5, §6

Stellaria media [20] = assay: Herbicidal activity, postemergence test; settings: post; sprayed onto seedling plants, 800 g of active material per hectare; evaluated 2 weeks after treatment
Method: as §1, §2, §3, §4, §5, §6

Veronica persica [21] = assay: Herbicidal activity, postemergence test; settings: post; sprayed onto seedling plants, 800 g of active material per hectare; evaluated 2 weeks after treatment
Method: as §1, §2, §3, §4, §5, §6

Alopecurus myosuroides [22] = assay: Herbicidal activity, postemergence test; settings: post; sprayed onto seedling plants, 800 g of active material per hectare; evaluated 2 weeks after treatment
Method: as §1, §2, §3, §4, §5, §6

Gossypium hirsutum [23] = assay: Herbicidal activity, postemergence test; settings: post; sprayed onto seedling plants, 800 g of active material per hectare; evaluated 2 weeks after treatment
Method: as §1, §2, §3, §4, §5, §6

Ambrosia artemisifolia [24] = assay: Herbicidal activity, postemergence test; settings: post; sprayed onto seedling plants, 800 g of active material per hectare; evaluated 2 weeks after treatment
Method: as §1, §2, §3, §4, §5, §6

Abutilon theophrasti [25] = assay: Herbicidal activity, postemergence test; settings: post; sprayed onto seedling plants, 800 g of active material per hectare; evaluated 2 weeks after treatment
Method: as §1, §2, §3, §4, §5, §6

Triticum aestivum [26] = assay: Herbicidal activity, postemergence test; settings: post; sprayed onto seedling plants, 800 g of active material per hectare; evaluated 2 weeks after treatment
Method: as §1, §2, §3, §4, §5, §6

Amaranthus retroflexus [27] = assay: Herbicidal activity, postemergence test; settings: post; sprayed onto seedling plants, 800 g of active material per hectare; evaluated 2 weeks after treatment
Method: as §1, §2, §3, §4, §5, §6

Setaria viridis [28] = assay: Herbicidal activity, postemergence test; settings: post; sprayed onto seedling plants, 800 g of active material per hectare; evaluated 2 weeks after treatment
Method: as §1, §2, §3, §4, §5, §6

Lamium purpureum [29] = assay: Herbicidal activity, postemergence test; settings: post; sprayed onto seedling plants, 800 g of active material per hectare; evaluated 2 weeks after treatment
Method: as §1, §2, §3, §4, §5, §6

Matricaria inodora [30] = assay: Herbicidal activity, postemergence test; settings: post; sprayed onto seedling plants, 800 g of active material per hectare; evaluated 2 weeks after treatment
Method: as §1, §2, §3, §4, §5, §6

Galium aparine [31] = assay: Herbicidal activity, postemergence test; settings: post; sprayed onto seedling plants, 800 g of active material per hectare; evaluated 2 weeks after treatment
Method: as §1, §2, §3, §4, §5, §6

Hordeum vulgare [32] = assay: Herbicidal activity, postemergence test; settings: post; sprayed onto seedling plants, 800 g of active material per hectare; evaluated 2 weeks after treatment
Method: as §1, §2, §3, §4, §5, §6

Papaver rhoeas [33] = assay: Herbicidal activity, postemergence test; settings: post; sprayed onto seedling plants, 800 g of active material per hectare; evaluated 2 weeks after treatment
Method: as §1, §2, §3, §4, §5, §6

Zea mays [34] = assay: Herbicidal activity, postemergence test; settings: post; sprayed onto seedling plants, 800 g of active material per hectare; evaluated 2 weeks after treatment
Method: as §1, §2, §3, §4, §5, §6

Chenopodium album [35] = assay: Herbicidal activity, postemergence test; settings: post; sprayed onto seedling plants, 800 g of active material per hectare; evaluated 2 weeks after treatment
Method: as §1, §2, §3, §4, §5, §6

Ipomoea hederacea [36] = assay: Herbicidal activity, postemergence test; settings: post; sprayed onto seedling plants, 800 g of active material per hectare; evaluated 2 weeks after treatment
Method: as §1, §2, §3, §4, §5, §6

Row | SMILES | GLXMA control rating (0-9) (Glycine max [1]) | STEME control rating (0-9) (Stellaria media [2]) | VERPE control rating (0-9) (Veronica persica [3]) | ALOMY control rating (0-9) (Alopecurus myosuroides [4]) | GOSHI control rating (0-9) (Gossypium hirsutum [5]) | AMBEL control rating (0-9) (Ambrosia artemisifolia [6]) | ABUTH control rating (0-9) (Abutilon theophrasti [7]) | TRZAW control rating (0-9) (Triticum aestivum [8]) | AMARE control rating (0-9) (Amaranthus retroflexus [9]) | SETVI control rating (0-9) (Setaria viridis [10]) | LAMPU control rating (0-9) (Lamium purpureum [11]) | MATIN control rating (0-9) (Matricaria inodora [12]) | GALAP control rating (0-9) (Galium aparine [13]) | HORVW control rating (0-9) (Hordeum vulgare [14]) | PAPRH control rating (0-9) (Papaver rhoeas [15]) | ZEAMX control rating (0-9) (Zea mays [16]) | CHEAL control rating (0-9) (Chenopodium album [17]) | IPOHE control rating (0-9) (Ipomoea hederacea [18]) | GLXMA control rating (0-9) (Glycine max [19]) | STEME control rating (0-9) (Stellaria media [20]) | also measured
1 | C[C@H](NC(=O)c1nnc(-c2ccc(Cl)cc2Cl)o1)c1ccccc1 [Example 26] | 0 (no effect) | 0 (no effect) | 7 (good herbicidal effect) | 0 (no effect) | 0 (no effect) | 0 (no effect) | 0 (no effect) | 0 (no effect) | 3 (moderate effect) | 0 (no effect) | 0 (no effect) | 0 (no effect) | 0 (no effect) | 0 (no effect) | 9 (complete kill) | 0 (no effect) | 0 (no effect) | 0 (no effect) | 2 (slight effect) | 6 (herbicidal effect) | VERPE control rating (0-9) (Veronica persica [21]): 3 (moderate effect); ALOMY control rating (0-9) (Alopecurus myosuroides [22]): 0 (no effect); GOSHI control rating (0-9) (Gossypium hirsutum [23]): 3 (moderate effect); AMBEL control rating (0-9) (Ambrosia artemisifolia [24]): 0 (no effect); ABUTH control rating (0-9) (Abutilon theophrasti [25]): 1 (trace effect); TRZAW control rating (0-9) (Triticum aestivum [26]): 0 (no effect); AMARE control rating (0-9) (Amaranthus retroflexus [27]): 8 (approaching complete kill); SETVI control rating (0-9) (Setaria viridis [28]): 4 (injury); LAMPU control rating (0-9) (Lamium purpureum [29]): 7 (good herbicidal effect); MATIN control rating (0-9) (Matricaria inodora [30]): 2 (slight effect); GALAP control rating (0-9) (Galium aparine [31]): 0 (no effect); HORVW control rating (0-9) (Hordeum vulgare [32]): 0 (no effect); PAPRH control rating (0-9) (Papaver rhoeas [33]): 3 (moderate effect); ZEAMX control rating (0-9) (Zea mays [34]): 0 (no effect); CHEAL control rating (0-9) (Chenopodium album [35]): 5 (definite injury); IPOHE control rating (0-9) (Ipomoea hederacea [36]): 0 (no effect)
2 | O=C(NCc1cccs1)c1nnc(-c2ccccc2F)o1 [Example 11] | 0 (no effect) | 7 (good herbicidal effect) | 7 (good herbicidal effect) | 0 (no effect) | 0 (no effect) | 0 (no effect) | 0 (no effect) | 0 (no effect) | 7 (good herbicidal effect) | 3 (moderate effect) | 0 (no effect) | 2 (slight effect) | 0 (no effect) | 0 (no effect) | 8 (approaching complete kill) | 1 (trace effect) | 3 (moderate effect) | 0 (no effect) | 0 (no effect) | 7 (good herbicidal effect) | VERPE control rating (0-9) (Veronica persica [21]): 6 (herbicidal effect); ALOMY control rating (0-9) (Alopecurus myosuroides [22]): 0 (no effect); GOSHI control rating (0-9) (Gossypium hirsutum [23]): 1 (trace effect); AMBEL control rating (0-9) (Ambrosia artemisifolia [24]): 4 (injury); ABUTH control rating (0-9) (Abutilon theophrasti [25]): 5 (definite injury); TRZAW control rating (0-9) (Triticum aestivum [26]): 0 (no effect); AMARE control rating (0-9) (Amaranthus retroflexus [27]): 9 (complete kill); SETVI control rating (0-9) (Setaria viridis [28]): 0 (no effect); LAMPU control rating (0-9) (Lamium purpureum [29]): 0 (no effect); MATIN control rating (0-9) (Matricaria inodora [30]): 0 (no effect); GALAP control rating (0-9) (Galium aparine [31]): 0 (no effect); HORVW control rating (0-9) (Hordeum vulgare [32]): 0 (no effect); PAPRH control rating (0-9) (Papaver rhoeas [33]): 7 (good herbicidal effect); ZEAMX control rating (0-9) (Zea mays [34]): 0 (no effect); CHEAL control rating (0-9) (Chenopodium album [35]): 8 (approaching complete kill); IPOHE control rating (0-9) (Ipomoea hederacea [36]): 0 (no effect)
